The text below walks through data of US6706740B2, “Fungicidal heterocyclic aromatic amides and their compositions, methods of use and preparation” (Dow AgroSciences LLC, priority 1999, dated 2004).

The subject of assay [1] is Puccinia recondita—PUCCRT. The assay can be described thus: Brown Rust of Wheat, in vivo whole plant, 24 Hour Protectant. Particulars: control of fungal infection vs untreated plants; for pest or weed control at 100 ppm: Puccinia, read-out: PUCCRT in vivo 1 Day Protectant.
The subject of assay [2] is Phytophthora infestans (PHYTIN). Kind of assay: microbe, parasite or virus in culture. Particulars: Phytophthora infestans, read-out: PHYTIN in vitro Growth Inhibition. Type of assay: cell-based.
Assay [3] relates to Stagonospora nodorum (Leptosphaeria nodorum—LEPTNO). The assay can be described thus: In vitro fungal growth inhibition, Stagonospora nodorum (LEPTNO). Type of assay: cell-based. As to conditions: Leptosphaeria, read-out: LEPTNO in vitro Growth Inhibition.
For assay [4], the system named is Magnaporthe grisea (Pyricularia oryzae—PYRIOR). Kind of assay: microbe, parasite or virus in culture. It is filed as cell-based. As to conditions: Pyricularia oryzae, read-out: PYRIOR in vitro Growth Inhibition.
Assay [5] has as its system Phytophthora infestans—PHYTIN. Kind of assay: whole plant or invertebrate. It is filed as in vivo. Particulars: Phytophthora, in Solanum lycopersicum, 24 h, read-out: PHYTIN in vivo 1 Day Protectant.
A further assay relates to Erysiphe graminis—ERYSGT. Kind of assay: Powdery Mildew of Wheat, in vivo whole plant, 24 Hour Protectant. As to conditions: Erysiphe, control of fungal infection vs untreated plants, read-out: ERYSGT in vivo 1 Day Protectant.
In assay [6] the test system is Rhizoctonia solani (RHIZSO). The assay can be described thus: microbe, parasite or virus in culture. It is filed as cell-based. As to conditions: Rhizoctonia solani, read-out: RHIZSO in vitro Growth Inhibition.
The subject of the next assay is Septoria tritici—SEPTTR. Kind of assay: Leaf Blotch of Wheat, in vivo whole plant, 24 Hour Protectant. Particulars: control of fungal infection vs untreated plants; for pest or weed control at 100 ppm: Zymoseptoria tritici, 24 h, read-out: SEPTTR in vivo 1 Day Protectant.
Assay [7] concerns Leptosphaeria nodorum—LEPTNO. Kind of assay: Glume Blotch of Wheat, in vivo whole plant, 24 Hour Protectant. As to conditions: control of fungal infection vs untreated plants; for pest or weed control at 100 ppm: Leptosphaeria, read-out: LEPTNO in vivo 1 Day Protectant.
In assay [8] the test system is Mycosphaerella graminicola (Septoria tritici—SEPTTR). The assay can be described thus: In vitro fungal growth inhibition, Mycosphaerella graminicola (SEPTTR). It is filed as cell-based. Particulars: Zymoseptoria tritici, read-out: SEPTTR in vitro Growth Inhibition.
For a further assay, the system named is Ustilago maydis (USTIMA). Kind of assay: microbe, parasite or virus in culture. As to conditions: Mycosarcoma maydis, read-out: USTIMA in vitro Growth Inhibition. It is filed as cell-based.
Setting [9] is: 100 ppm spray, wheat, 24 hour protectant.
The mark [10] stands for this setting: 100 ppm spray, 24 hour protectant, wheat.
Where [11] appears, read: wheat plants sprayed at 100 ppm, inoculated after 24 hours.

Like-named read-outs stand apart in the source and are kept apart here.

Broadly, the inhibition is the change of the read-out against control, counted positive when it falls. On to `COC(=O)C(COC(=O)C(COC(=O)C(C)C)Cc1ccccc1)NC(=O)c1nccc(OC)c1O` (stereo not drawn) [Compound 349], for which, in [1] (setting [9]), the “PUCCRT in vivo 1 Day Protectant” value is listed as “+ +”. In addition, the inhibition at 25 ppm (in assay [2]; in assay [3] (25 ppm in growth medium); in assay [4]; in assay [6]; in [8] (25 ppm in growth medium); with Ustilago maydis (USTIMA)) was below 80% each time. Besides, the pest or weed control at 100 ppm (in assay [5]; in the assay on Erysiphe graminis—ERYSGT (setting [9]); with Septoria tritici—SEPTTR (setting [9]); in assay [7] (setting [9])) was below 25% each time.

As to `CCC1(C)CC(NC(=O)c2nccc(OC)c2O)CC(C)(C)C1` (stereo not drawn) [Compound 251], the “PUCCRT in vivo 1 Day Protectant” value in assay [1] (setting [10]) is reported as “+ +”. The inhibition at 25 ppm in assay [2] is above 80%; in [3] (25 ppm in growth medium), above 80%; in assay [4] it was below 80%; in [6] it was below 80%; in assay [8] (25 ppm in growth medium), above 80%; with Ustilago maydis (USTIMA), below 80%. Also, the pest or weed control at 100 ppm in assay [5] was 25 to 74%; in the assay with Erysiphe graminis—ERYSGT (setting [10]), below 25%. Further, in the assay on Septoria tritici—SEPTTR (setting [10]), the “SEPTTR in vivo 1 Day Protectant” value is “+ +”. Further, in [7] (setting [10]), the “LEPTNO in vivo 1 Day Protectant” value is “+ +”.

In the case of `COc1cccc(Oc2cccc(NC(=O)c3nccc(OC)c3O)c2)c1` [Compound 431], the pest or weed control at 100 ppm in assay [1] (setting [9]) is below 25%; in assay [5] it was below 25%; in the assay on Erysiphe graminis—ERYSGT (setting [9]), below 25%; with Septoria tritici—SEPTTR (setting [9]), 25 to 74%; in assay [7] (setting [9]), below 25%. In addition, the inhibition at 25 ppm in assay [2] was below 80%; in assay [3] (25 ppm in growth medium), above 80%; in assay [4], below 80%; in [6], below 80%; in assay [8] (25 ppm in growth medium), above 80%; in the assay with Ustilago maydis (USTIMA), below 80%.

Consider `COc1ccnc(C(=O)NC2CCCCCCC2)c1O` [Compound 282], for which the pest or weed control at 100 ppm in [1] (setting [10]) is 25 to 74%; in assay [5], below 25%; with Erysiphe graminis—ERYSGT (setting [10]), below 25%; with Septoria tritici—SEPTTR (setting [10]), 25 to 74%; in assay [7] (setting [10]), 25 to 74%. Moreover, the inhibition at 25 ppm (in assay [2]; in assay [3] (25 ppm in growth medium); in assay [4]; in [6]; in [8] (25 ppm in growth medium); with Ustilago maydis (USTIMA)) was below 80% in each case.

Turning to `CC1(C)CC(NC(=O)c2nccc(Cl)c2O)CC(C)(C)C1` [Compound 480], the pest or weed control at 100 ppm in assay [1] (setting [11]) was below 25%; in [5], below 25%; in the assay with Erysiphe graminis—ERYSGT (setting [11]) it was below 25%; with Septoria tritici—SEPTTR (setting [11]), below 25%; in assay [7] (setting [11]), 25 to 74%. In addition, the inhibition at 25 ppm in assay [2] was below 80%; in [3] (25 ppm in the growth medium), below 80%; in assay [4] it was above 80%; in assay [6], below 80%; in [8] (25 ppm in the growth medium), below 80%; with Ustilago maydis (USTIMA), below 80%.

Regarding `COc1cccc(Oc2ccc(NC(=O)c3nccc(OC)c3O)cc2)c1` [Compound 434], the pest or weed control at 100 ppm in [1] (setting [9]) was below 25%; in [5], below 25%; in the assay on Erysiphe graminis—ERYSGT (setting [9]) it was 25 to 74%; with Septoria tritici—SEPTTR (setting [9]), below 25%; in [7] (setting [9]), 25 to 74%. Also, the inhibition at 25 ppm in [2] is below 80%; in assay [3] (25 ppm in growth medium), above 80%; in [4], below 80%; in [6], below 80%; in assay [8] (25 ppm in growth medium) it was above 80%; in the assay with Ustilago maydis (USTIMA), below 80%.
